This note sets out measurements from PMC9626527, “SHR2285, the first selectively oral FXIa inhibitor in China: Safety, tolerability, pharmacokinetics and pharmacodynamics combined with aspirin, clopidogrel or ticagrelor” (Frontiers in Pharmacology, 2022).

Each structure is given as a SMILES string.

A short description of this series: Plasma pharmacokinetics of co-administered aspirin (100 mg qd)/salicylic acid, clopidogrel (300 mg then 75 mg qd), ticagrelor (180 mg then 90 mg bid)/AR-C124910XX with SHR2285 or placebo. The protocol: For group A, the dosing regimen was aspirin + clopidogrel + placebo or SHR2285 200 mg. Specifically, aspirin: 100 mg was taken orally every morning from day 1 to day 6; clopidogrel: 300 mg in the morning of the first day, 75 mg in the morning of the second day to the sixth day; placebo or SHR2285 (1:3): 200 mg orally every morning and evening until the morning of the sixth day.
For group B, the dosing regimen was aspirin + clopidogrel + placebo or SHR2285 300 mg. The use of aspirin and clopidogrel was the same as that of group A; Placebo or SHR2285: added the amount to 300 mg based on group A.
For group C, the administration regimen was aspirin + ticagrelor + placebo or SHR2285 300 mg. The use of aspirin, placebo or SHR2285 was the same as that in group B. Clopidogrel in group B was adjusted to ticagrelor: 180 mg orally in the morning of the first day, 90 mg in the morning and evening from the second day to the morning of the sixth day.
PK blood collection points: the blood of each group was collected in the morning of day 1 before administration (within 1 h before administration), 4 h and 12 h after administration (before administration in the evening); in the morning of day 3, day 4, and day 5 before administration (within 1 h before administration), within 1 h before administration on the morning of the sixth day, and 0.5 h, 1 h, 1.5 h, 2 h, 2.5 h, 3 h, 4 h, 5 h, 6 h, 8 h, 10 h, 12 h, 15 h, 24 h, 36 h, and 48 h after administration. About 7 ml of venous blood was collected, and the plasma was collected for concentration determination of aspirin and its active metabolites (salicylic acid) and clopyridine (group A, group B), ticagrelor and its active metabolite AR-C124910XX (group C), SHR2285 and its active metabolite SHR164471.
Based on the actual sampling time, the PK parameters of each component were calculated as a non-compartmental model by WinNonlin (Certara United States Inc, version 8.1). The pharmacokinetic parameters after multiple administrations were investigated: Cmax, AUCtau, AUC0-last, AUC0-inf, Tmax, t1/2, CLss/F, Vss/F, Ctrough and Caverage. The main pharmacokinetic parameters such as AUC0-last, AUC0-inf and Cmax were tabulated and summarized by descriptive statistics.
After logarithmic conversion, the AUCss and Cmax of each component in the SHR2285 group (aspirin + clopidogrel/ticagrelor + SHR2285) and placebo group (aspirin + clopidogrel/ticagrelor + placebo) were statistically analyzed by ANOVA model. The medication group was used as the independent variable. The geometric mean ratio of the corresponding PK parameter (SHR2285/placebo group) and the estimated value of its 90% confidence interval was obtained by taking the exponential conversion from the mean difference estimated by the model (SHR2285 group-placebo group) and its 90% confidence interval. SHR2285 and its metabolite SHR164471, aspirin/salicylic acid, clopidogrel, ticagrelor and its metabolite AR-C124910XX were determined by Frontage Laboratories Co., Ltd. (Shanghai, China) using high-performance liquid chromatography-tandem mass spectrometry (HPLC-MS, Sciex API 4000). The chromatographic column is WATERS CORTECS®T3 (50 mm × 4.6 mm, id 2.7 μm), column temperature is set at 40°C. Mobile phase A is ultrapure water (containing 0.1% formic acid), and mobile phase B is acetonitrile/water (90:10, containing 0.1% formic acid). The elution gradient is: 0–0.4 min, A-B (50:50), 0.4–0.8 min, A-B (5:95), 0.8–2 min, A-B (5:95), 2–2.4 (50:50), 2.4–3.5 min, A-B (50:50). The total time was 3.5 min and the flow rate was 1.0 ml/min. The ion source was ESI source at positive ion mode. The heating capillary temperature was 400°C; CAD was nine; curtain gas was 30; GS1 (N2) was 50; GS2 (N2) was 50; The method used was multiple reaction monitoring (MRM), and the ion reactions used for quantitative analysis were m/z 545.1→408.0 (SHR2285) and m/z 721.2→408.1 (SHR164471), respectively.

[1] abbreviates: Placebo (C) n=8: aspirin + ticagrelor + placebo, day 6.
The mark [2] stands for this setting: SHR2285 (C) n=12: aspirin + ticagrelor + SHR2285 300 mg bid, day 6.

A word on the Tmax: it is the time at which the peak concentration occurs. For the compound `CCCSc1nc(N[C@@H]2C[C@H]2c2ccc(F)c(F)c2)c2nnn([C@@H]3C[C@H](O)[C@@H](O)[C@H]3O)c2n1` [AR-C124910XX], the AUCtau reads like this: under setting [1], 2490(38.3) h*ng/mL; under setting [2], 2280(26.4) h*ng/mL. Also, the Cmax runs as follows: under setting [1], 389(35.4) ng/ml; under setting [2], 367(28.1) ng/ml. For the same compound, the Tmax was 1.5(1.0-2.5) h (Placebo (C) n=8: aspirin + ticagrelor + placebo, day 6, median (range)); 1.75(1.5-2.5) h (SHR2285 (C) n=12: aspirin + ticagrelor + SHR2285 300 mg bid, day 6, median (range)); 1.5 to 1.75 h (range across SHR2285 and placebo groups, day 6). The “steady state in plasma” value (group C, six days after administration of ticagrelor) is on record as “reached a steady state”.

For the compound `COC(=O)[C@H](c1ccccc1Cl)N1CCc2sccc2C1` [Clopidogrel, clopidogrel], for the setting “human, in vivo”, the time of peak concentration (Tmax) result is recorded as “one to 1.5”.

Turning to `CCCSc1nc(N[C@@H]2C[C@H]2c2ccc(F)c(F)c2)c2nnn([C@@H]3C[C@H](OCCO)[C@@H](O)[C@H]3O)c2n1` [Ticagrelor, ticagrelor], under “human, in vivo”, the “GLSMR of AUCtau (SHR2285 group/placebo group)” value is reported as 0.929 and the “GLSMR of Cmax (SHR2285 group/placebo group)” value stood at 1.06. Besides, the Tmax (human, in vivo, Tmax) was in the range of 1.5 to 1.75 h. Moreover, the “steady state in plasma” value (in vivo) was “reached a steady state”.
